This is an account of results in patent publication US10004701B2, “Methods and compositions for treating infection” (UNIVERSITY OF ROCHESTER, priority 2012, dated 2018).

What all share (assay): AK assay 384-well format, Prestwick library screening
One assay concerns E. faecium. Format: cell-based, Enterococcus faecium. To be noted: Enterococcus faecium, 3 h, 50 μM final drug concentration.
Assay [1] concerns A. baumannii strain 98-37-09. Format: cell-based, Acinetobacter baumannii. To be noted: Acinetobacter baumannii, 983709, 3 h, 50 μM final drug concentration.
Assay [2] deals with S. aureus strain USA300-0114. Format: cell-based, Staphylococcus aureus. Conditions: Staphylococcus aureus, USA300, 3 h, 50 μM final drug concentration.
A further assay deals with E. cloacae. Format: cell-based, Enterobacter cloacae. To be noted: Enterobacter cloacae, 3 h, 50 μM final drug concentration.
For a further assay, the system named is K. pneumoniae. In kind it is cell-based, Klebsiella pneumoniae. Conditions: Klebsiella pneumoniae, 3 h, 50 μM final drug concentration.
For a further assay, the system named is P. aeruginosa. In kind it is cell-based, Pseudomonas aeruginosa. To be noted: Pseudomonas aeruginosa, 3 h, 50 μM final drug concentration.
For another assay, the system named is E. coli. Format: cell-based, Escherichia coli. Conditions: Escherichia coli, 3 h, 50 μM final drug concentration.
Where [3] appears, read: planktonic, cutoff for positive 3-fold increase, read-out: AK-based Prestwick Library Screening Results, E. faecium (fold increase in extracellular AK activity).
[4] abbreviates: planktonic, cutoff for positive 3-fold increase, read-out: AK-based Prestwick Library Screening Results, A. baumannii (fold increase in extracellular AK activity).
[5] abbreviates: planktonic, cutoff for positive 3-fold increase, read-out: AK-based Prestwick Library Screening Results, S. aureus (fold increase in extracellular AK activity).
Where [6] appears, read: planktonic, cutoff for positive 3-fold increase, read-out: AK-based Prestwick Library Screening Results, E. cloacae (fold increase in extracellular AK activity).
Where [7] appears, read: planktonic, cutoff for positive 3-fold increase, read-out: AK-based Prestwick Library Screening Results, K. pneumoniae (fold increase in extracellular AK activity).
Setting [8] is: planktonic, cutoff for positive 3-fold increase, read-out: AK-based Prestwick Library Screening Results, P. aeruginosa (fold increase in extracellular AK activity).
Where [9] appears, read: planktonic, cutoff for positive 3-fold increase, read-out: AK-based Prestwick Library Screening Results, E. coli (fold increase in extracellular AK activity).
Where [10] appears, read: planktonic E. faecium, positive cutoff 3-fold increase, read-out: AK-based Prestwick library screening result, E. faecium (fold increase in extracellular AK activity).
The mark [11] stands for this setting: planktonic A. baumannii, positive cutoff 3-fold increase, read-out: AK-based Prestwick library screening result, A. baumannii (fold increase in extracellular AK activity).
[12] abbreviates: planktonic S. aureus, positive cutoff 3-fold increase, read-out: AK-based Prestwick library screening result, S. aureus (fold increase in extracellular AK activity).
The mark [13] stands for this setting: planktonic E. cloacae, positive cutoff 3-fold increase, read-out: AK-based Prestwick library screening result, E. cloacae (fold increase in extracellular AK activity).
Where [14] appears, read: planktonic K. pneumoniae, positive cutoff 3-fold increase, read-out: AK-based Prestwick library screening result, K. pneumoniae (fold increase in extracellular AK activity).
[15] abbreviates: planktonic P. aeruginosa, positive cutoff 3-fold increase, read-out: AK-based Prestwick library screening result, P. aeruginosa (fold increase in extracellular AK activity).
Where [16] appears, read: planktonic E. coli, positive cutoff 3-fold increase, read-out: AK-based Prestwick library screening result, E. coli (fold increase in extracellular AK activity).

Each structure is given as a SMILES string. Where a name gives a salt, the structure may show the parent alone. Read-outs that look alike come from different tables or passages of the source.

For `CC[C@H]1OC(=O)[C@H](C)[C@@H](O[C@H]2C[C@@](C)(OC)[C@@H](O)[C@H](C)O2)[C@H](C)[C@@H](O[C@@H]2O[C@H](C)C[C@H](N(C)C)[C@H]2O)[C@](C)(O)C[C@@H](C)[C@@H]2N[C@@H](COCCOC)O[C@H]([C@H]2C)[C@]1(C)O` [Dirithromycin], the fold induction at 50 µM in the assay with E. faecium (setting [3]) is 1.2; in assay [1] (setting [4]), 1.8; in assay [2] (setting [5]), 2.1; in the assay with E. cloacae (setting [6]), 1.5; with K. pneumoniae (setting [7]) it was 1.2; with P. aeruginosa (setting [8]) it was 0.9. In addition, the fold induction at 50 µM in the assay on E. coli (setting [9]) came to 1.1.

For the compound `CC[C@H]1CN2CCc3cc(OC)c(OC)cc3[C@@H]2C[C@@H]1C[C@H]1NCCc2cc(OC)c(OC)cc21` [Emetine dihydrochloride], the fold induction at 50 µM in the assay with E. faecium (planktonic E. faecium, cutoff for positive-scoring molecules 3-fold increase, read-out: AK-based Prestwick Library Screening Results, E. faecium (increase in extracellular AK activity)) was found to be 0.9; in assay [1] (planktonic A. baumannii, cutoff for positive-scoring molecules 3-fold increase, read-out: AK-based Prestwick Library Screening Results, A. baumannii (increase in extracellular AK activity)) it was 0.5; in assay [2] (planktonic S. aureus, cutoff for positive-scoring molecules 3-fold increase, read-out: AK-based Prestwick Library Screening Results, S. aureus (increase in extracellular AK activity)), 0.5; with E. cloacae (planktonic E. cloacae, cutoff for positive-scoring molecules 3-fold increase, read-out: AK-based Prestwick Library Screening Results, E. cloacae (increase in extracellular AK activity)), 0.5; in the assay with K. pneumoniae (planktonic K. pneumoniae, cutoff for positive-scoring molecules 3-fold increase, read-out: AK-based Prestwick Library Screening Results, K. pneumoniae (increase in extracellular AK activity)), 0.6; in the assay on P. aeruginosa (planktonic P. aeruginosa, cutoff for positive-scoring molecules 3-fold increase, read-out: AK-based Prestwick Library Screening Results, P. aeruginosa (increase in extracellular AK activity)) it was 0.5. The fold induction at 50 µM in the assay with E. coli (planktonic E. coli, cutoff for positive-scoring molecules 3-fold increase, read-out: AK-based Prestwick Library Screening Results, E. coli (increase in extracellular AK activity)) was found to be 0.5.

`COc1ccc2c(c1)C(=O)N(CCc1ccc(S(=O)(=O)NC(=O)NC3CCCCC3)cc1)C(=O)C2(C)C` [Gliquidone]: the fold induction at 50 µM in the assay with E. faecium (setting [10]) stood at 0.9; in assay [1] (setting [11]), 0.7; in assay [2] (setting [12]), 0.5; in the assay on E. cloacae (setting [13]), 1.1; in the assay with K. pneumoniae (setting [14]), 0.7; in the assay with P. aeruginosa (setting [15]), 0.8. Besides, the fold induction at 50 µM with E. coli (setting [16]) is 0.8.

`NC(=O)c1ncn([C@@H]2O[C@H](CO)[C@@H](O)[C@H]2O)n1` [Ribavirin]: the fold induction at 50 µM was found to be 0.9 in the assay with E. faecium (setting [10]); 0.9 in assay [1] (setting [11]); 0.7 in assay [2] (setting [12]); 1.2 in the assay with E. cloacae (setting [13]); 0.7 with K. pneumoniae (setting [14]); 1.1 in the assay on P. aeruginosa (setting [15]). In the assay on E. coli (setting [16]), the fold induction at 50 µM was 0.8.

In the case of `COc1ccc2cc([C@H](C)C(=O)O)ccc2c1` [Naproxen], the fold induction at 50 µM in the assay on E. faecium (384-well format, cutoff for positive-scoring molecules 3-fold increase, read-out: AK-based Prestwick Library Screening Results, E. faecium (increase in extracellular AK activity)) was 1; in assay [1] (384-well format, cutoff for positive-scoring molecules 3-fold increase, read-out: AK-based Prestwick Library Screening Results, A. baumannii (increase in extracellular AK activity)), 1.1; in assay [2] (384-well format, cutoff for positive-scoring molecules 3-fold increase, read-out: AK-based Prestwick Library Screening Results, S. aureus (increase in extracellular AK activity)), 0.8; with E. cloacae (384-well format, cutoff for positive-scoring molecules 3-fold increase, read-out: AK-based Prestwick Library Screening Results, E. cloacae (increase in extracellular AK activity)), 1.4; in the assay with K. pneumoniae (384-well format, cutoff for positive-scoring molecules 3-fold increase, read-out: AK-based Prestwick Library Screening Results, K. pneumoniae (increase in extracellular AK activity)), 0.9; with P. aeruginosa (384-well format, cutoff for positive-scoring molecules 3-fold increase, read-out: AK-based Prestwick Library Screening Results, P. aeruginosa (increase in extracellular AK activity)) it was 1. The fold induction at 50 µM with E. coli (384-well format, cutoff for positive-scoring molecules 3-fold increase, read-out: AK-based Prestwick Library Screening Results, E. coli (increase in extracellular AK activity)) was 1.2.

On to `CN(C)CCC(c1ccc(Br)cc1)c1ccccn1` (centres unmarked) [Brompheniramine maleate], for which the fold induction at 50 µM was 1 in the assay on E. faecium (setting [3]); 1.2 in assay [1] (setting [4]); 1.1 in assay [2] (setting [5]); 2 in the assay with E. cloacae (setting [6]); 1.1 in the assay with K. pneumoniae (setting [7]); 1.1 in the assay on P. aeruginosa (setting [8]). For the same compound, the fold induction at 50 µM in the assay on E. coli (setting [9]) stood at 1.4.

Regarding `Cc1onc(-c2c(F)cccc2Cl)c1C(=O)N[C@@H]1C(=O)N2[C@@H]1SC(C)(C)[C@@H]2C(=O)O` [Flucloxacillin sodium], the fold induction at 50 µM in the assay on E. faecium (setting [10]) was 1; in assay [1] (setting [11]), 1.5; in assay [2] (setting [12]), 6.1; in the assay with E. cloacae (setting [13]), 1.3; in the assay on K. pneumoniae (setting [14]) it was 1.1; in the assay on P. aeruginosa (setting [15]) it was 1.2. In addition, the fold induction at 50 µM in the assay with E. coli (setting [16]) was determined as 1.3.

On to `O=C(COc1ccc(Cl)cc1)N1CCN(Cc2ccc3c(c2)OCO3)CC1` [Fipexide hydrochloride], for which the fold induction at 50 µM with E. faecium (planktonic E. faecium, 384-well, cutoff for positive-scoring molecules 3-fold increase, read-out: AK-based Prestwick Library Screening Results: E. faecium (increase in extracellular AK activity)) worked out at 1.1; in assay [1] (planktonic A. baumannii, 384-well, cutoff for positive-scoring molecules 3-fold increase, read-out: AK-based Prestwick Library Screening Results: A. baumannii (increase in extracellular AK activity)), 1; in assay [2] (planktonic S. aureus, 384-well, cutoff for positive-scoring molecules 3-fold increase, read-out: AK-based Prestwick Library Screening Results: S. aureus (increase in extracellular AK activity)), 0.9; with E. cloacae (planktonic E. cloacae, 384-well, cutoff for positive-scoring molecules 3-fold increase, read-out: AK-based Prestwick Library Screening Results: E. cloacae (increase in extracellular AK activity)), 1.3; with K. pneumoniae (planktonic K. pneumoniae, 384-well, cutoff for positive-scoring molecules 3-fold increase, read-out: AK-based Prestwick Library Screening Results: K. pneumoniae (increase in extracellular AK activity)), 1.1; with P. aeruginosa (planktonic P. aeruginosa, 384-well, cutoff for positive-scoring molecules 3-fold increase, read-out: AK-based Prestwick Library Screening Results: P. aeruginosa (increase in extracellular AK activity)) it was 1. The fold induction at 50 µM in the assay on E. coli (planktonic E. coli, 384-well, cutoff for positive-scoring molecules 3-fold increase, read-out: AK-based Prestwick Library Screening Results: E. coli (increase in extracellular AK activity)) was 1.3.
